Marks after values point to notes of the source that are not given here.
Experiment: Measurement of LogP values by HPLC on reversed phase columns (EEC directive 79/831 Annex V.A8)
Format: physicochemical
Settings: not given
Procedure: The abbreviations and numerations of the substituent positions used in the context of the present invention and in the following Tables are explained in detail in the section Examples hereinafter. Also, the LogP values indicated in the following Tables are explained in detail in the section Examples hereinafter. In case LogP values for different diastereoisomers of a specific compound are […], said LogP values are […] by a “+”. […] Measurement of LogP values was performed according to EEC directive 79/831 Annex V.A8 by HPLC (High Performance Liquid Chromatography) on reversed phase columns with the following methods: […] Lambda-max-values were determined using UV-spectra from 200 nm to 400 nm and the peak values of the chromatographic signals

LogP | LogP [a] | LogP [b] | SMILES
2.50[a] |  |  | Cc1ccc(C)c(CNC(=O)c2snc(N)c2Cl)c1 [I-326]
3.02[a] |  |  | Nc1nsc(C(=O)N(Cc2c(Cl)cccc2Cl)C2CC2)c1Cl [I-208]
3.09[a] |  |  | COc1ccc(CNc2nsc(C(=O)NCC3(O)CCCCC3)c2Cl)cc1 [I-105]
4.39[a] |  |  | COc1ccc(CNc2nsc(C(=O)NC3CC34CCCCC4)c2Cl)cc1 (stereo not shown) [I-1548]
1.64[a] |  |  | Cc1c(N)nsc1C(=O)NCc1cc(F)c(F)cc1F [I-588]
3.90[a] |  |  | COc1ccc(CNc2nsc(C(=O)NC3Cc4ccccc4C3)c2Cl)cc1 [I-1248]
2.11[a] |  |  | Nc1nsc(C(=O)NCCc2ccccc2F)c1Cl [I-972]
 | 1.83^[a] |  | O=C(NCc1ccc(F)c(F)c1F)c1snc(N=S2CCCC2)c1Cl [II-048]
2.80[a] |  |  | Cc1ccc(F)c(CN(C(=O)c2snc(N)c2Cl)C2CC2)c1 [I-363]
 | 5.43^[a] |  | O=C(NC1CCCC2CCCCC21)c1snc(Cl)c1Cl (stereo not shown) [E-II-026]
3.90[a] |  |  | CCC(c1ccc(Cl)cc1Cl)N(C(=O)c1snc(N)c1Cl)C1CC1 (stereo not shown) [I-954]
6.02[a] |  |  | CCC1CC(C)CC(CC)C1NC(=O)c1snc(NCc2ccc(OC)cc2)c1Cl (stereo not shown) [I-1191]
3.00[a] |  |  | Nc1nsc(C(=O)NCc2ccc(Oc3ccc(F)cc3)cc2)c1Cl [I-238]
2.75[a] |  |  | CC1CCC(CNC(=O)c2snc(N)c2Cl)CC1 (stereo not shown) [I-738]
2.99[a] |  |  | C[C@H](NC(=O)c1snc(NC(=O)C2CC2)c1Cl)C1CCCCC1 [I-090]
3.41[a] |  |  | COc1ccc(CNc2nsc(C(=O)NCc3cc(OC)cc(OC)c3)c2Cl)cc1 [I-1328]
2.12[a] |  |  | Nc1nsc(C(=O)NCC2CCCCC2)c1O [I-797]
1.82[a] |  |  | COc1c(N)nsc1C(=O)NCc1c(F)cc(F)cc1F [I-732]
 | 1.57^[a] |  | CS(C)=Nc1nsc(C(=O)NCc2ccc(F)c(F)c2F)c1Cl [II-047]
3.25[a] |  |  | COc1ccc(CNc2nsc(C(=O)NC(C)c3ccc(OC)c(OC)c3)c2Cl)cc1 (stereo not shown) [I-1348]
 | 1.94^[a] |  | COc1ccc(CNc2nsc(C(N)=O)c2Cl)cc1 [II-106]
3.68[a] |  |  | COc1ccc(CNc2nsc(C(=O)NC(C)c3cccc(OC)c3)c2Cl)cc1 (stereo not shown) [I-1234]
3.07[a] |  |  | O=C(NCc1ccc(Cl)cc1)c1snc(NC2CC2)c1Cl [I-580]

LogP | LogP [a] | LogP [b] | SMILES
4.20[a] |  |  | COc1ccc(CNc2nsc(C(=O)NCc3cccc(Cl)c3C)c2Cl)cc1 [I-1243]
1.56[a] |  |  | Nc1cc(C(=O)NCc2ccc(F)cc2F)sn1 [I-031]
2.23[a] |  |  | Cc1c(CNC(=O)c2snc(N)c2Cl)ccc(F)c1F [I-163]
4.34[a] |  |  | COc1ccc(CNc2nsc(C(=O)NCc3ccc(Cl)c(C(F)(F)F)c3)c2Cl)cc1 [I-1249]
2.86[a] |  |  | Nc1nsc(C(=O)N(Cc2cc(Cl)ccc2F)C2CC2)c1Cl [I-364]
1.50[a] |  |  | Nc1nsc(C(=O)NCC2(F)CCC2)c1Cl [I-827]
5.62[a] |  |  | CCC(c1ccc(Cl)cc1Cl)N(C(=O)c1snc(NCc2ccc(OC)cc2)c1Cl)C1CC1 (stereo not shown) [I-932]
2.89[a] |  |  | C=CCNc1nsc(C(=O)NCc2ccccc2F)c1Cl [I-071]
3.35[a] |  |  | CCc1cccc(C)c1CN(C(=O)c1snc(N)c1Cl)C1CC1 [I-184]
4.26[a] |  |  | N#Cc1ccccc1NC(=O)c1cc(N(Cc2ccccc2)Cc2ccccc2)ns1 [I-905]
3.08[a] |  |  | COc1ccc(CNc2nsc(C(=O)NCc3cc(OC)c(OC)c(OC)c3)c2Cl)cc1 [I-1344]
3.55[a] |  |  | COc1ccc(CNc2nsc(C(=O)NC(C)Cc3ccco3)c2Cl)cc1 (stereo not shown) [I-1239]
2.44[a] |  |  | Nc1nsc(C(=O)NCC2CCCCC2Cl)c1Cl (stereo not shown) [I-821]
4.82[a] |  |  | COc1ccc(CNc2nsc(C(=O)N(Cc3c(C)cccc3C)C3CC3)c2Cl)cc1 [I-891]
1.86[a] |  |  | COc1ccc(CNc2nsc(C(=O)NS(C)(=O)=O)c2Cl)cc1 [I-883]
 | 5.19 | 5.05 | O=C(NC(c1ccccc1)C1CCCCC1)c1snc(Cl)c1Cl (stereo not shown) [E-II-031]
1.69[a] |  |  | Nc1nsc(C(=O)NCC2CC=C(F)CC2)c1F (stereo not shown) [I-1296]
2.11[a] |  |  | Nc1nsc(C(=O)NCc2cc(F)cc(F)c2)c1Cl [I-024]
1.91[a] |  |  | COc1ccc(CNC(=O)c2snc(N)c2Cl)cc1F [I-240]
6.54[a] |  |  | CC(c1cc(Cl)cc(Cl)c1)N(C(=O)c1cc(N(Cc2ccccc2)Cc2ccccc2)ns1)C1CC1 (stereo not shown) [I-912]
3.57[a] |  |  | CCCCCn1cc(CNC(=O)c2snc(NCc3ccc(OC)cc3)c2Cl)c(C)n1 [I-1259]
 | 1.68^[a] |  | CS(C)=Nc1nsc(C(=O)NCc2cc(F)c(F)c(F)c2)c1Cl [II-046]
1.49[a] |  |  | Cc1c(N)nsc1C(=O)NCc1c(F)ccc(F)c1F [I-596]

LogP | LogP [a] | LogP [b] | SMILES
4.06[a] |  |  | COc1ccc(CNc2nsc(C(=O)NCc3ccc(F)c(C(F)(F)F)c3)c2Cl)cc1 [I-1272]
5.25[a] |  |  | O=C(c1cc(N(Cc2ccccc2)Cc2ccccc2)ns1)N(Cc1cc(F)ccc1F)C1CC1 [I-991]
2.39[a] |  |  | Nc1nsc(C(=O)Nc2cccc3ccccc23)c1Cl [I-927]
 | 3.87^[a] |  | CCOC(=O)c1snc(NCc2ccc(OC)cc2)c1Cl [E-VII-069]
3.06[a] |  |  | COc1ccc(CNc2nsc(C(=O)NCC3(C)CCCO3)c2Cl)cc1 (stereo not shown) [I-1236]
3.37[a] |  |  | Nc1nsc(C(=S)NCC2CCCCC2)c1Cl [I-913]
 | 1.87^[a] |  | COc1ccc(CNc2cc(C(=O)O)sn2)cc1 [E-VIII-016]
3.09[a] |  |  | CCn1ncc(CNC(=O)c2snc(NCc3ccc(OC)cc3)c2Cl)c1C(F)F [I-1312]
2.61[a] |  |  | Nc1nsc(C(=O)NCc2ccc(F)cc2C(F)(F)F)c1Cl [I-324]
4.38[a] |  |  | O=C(NCc1ccccc1F)c1cc(N(Cc2ccccc2)Cc2ccccc2)ns1 [I-311]
2.49[a] |  |  | Nc1cc(C(=O)N(Cc2cc(Cl)ccc2F)C2CC2)sn1 [I-999]
 | 2.09 | 2.05 | Nc1nsc(C(=O)N2CCc3cc(F)ccc3C2)c1Cl [II-019]
2.42[a] |  |  | O=C(O)CCNc1nsc(C(=O)NCC2CCCCC2)c1Cl [I-721]
3.68[a] |  |  | COc1ccc(CNc2nsc(C(=O)NCc3ccc(OC)c(Cl)c3)c2Cl)cc1 [I-1240]
3.83[a] |  |  | COc1ccc(CNc2nsc(C(=O)NC(=O)C3CCCCC3)c2Cl)cc1 [I-982]
 | 1.94^[a] |  | CCS(C)=Nc1nsc(C(=O)NCC2CCCCC2)c1Cl (stereo not shown) [II-091]
3.23[a] |  |  | COc1ccc(CNc2nsc(C(=O)NCc3cn(C4CCCC4)nc3C)c2Cl)cc1 [I-1339]
4.33[a] |  |  | COc1ccc(CNc2nsc(C(=O)NCC3(OC)CCC(C)CC3)c2Cl)cc1 (stereo not shown) [I-823]
2.50[a] |  |  | COc1ccc(CNc2nsc(C(=O)NC3CCOCC3)c2Cl)cc1 [I-1190]
1.91[a] |  |  | Nc1nsc(C(=O)NCc2ccc(C(F)F)cc2)c1Cl [I-133]
4.05[a] |  |  | COc1ccc(CNc2nsc(C(=O)NC(C#N)c3cccc(Cl)c3Cl)c2Cl)cc1 (stereo not shown) [I-1335]
4.17[a] |  |  | COc1ccc(CNc2nsc(C(=O)N(C3CC3)C(C)c3ccccc3)c2Cl)cc1 (stereo not shown) [I-873]
1.78[a] |  |  | COc1ccc(CNc2nsc(C(=O)NCc3cccc(C)n3)c2Cl)cc1 [I-1345]

LogP | LogP [a] | LogP [b] | SMILES
 | 3.75^[a] |  | O=C(O)c1snc(N(Cc2ccccc2)Cc2ccccc2)c1Cl [E-VIII-005]
4.98[a] |  |  | O=C(NCc1ncc(C(F)(F)F)cc1Cl)c1cc(N(Cc2ccccc2)Cc2ccccc2)ns1 [I-162]
2.56[a] |  |  | Nc1nsc(C(=O)NCC2(Br)CCCCC2)c1F [I-1358]
3.29[a] |  |  | Nc1nsc(C(=O)N(Cc2cc(Cl)ccc2Br)C2CC2)c1Cl [I-365]
1.75[a] |  |  | COc1cccc(CNC(=O)c2snc(N)c2Cl)c1 [I-022]
3.62[a] |  |  | COc1ccc(CNc2nsc(C(=O)Nc3ccccc3C#N)c2Cl)cc1 [I-881]
2.59[a] |  |  | COc1ccc(CNc2nsc(C(=O)NCCC3CCOC3)c2Cl)cc1 (stereo not shown) [I-1196]
2.02[a] |  |  | Nc1cc(C(=O)NCc2cccc(Cl)c2Cl)sn1 [I-308]
 | 4.40^[a] |  | O=C(NCCC1CCCCC1)c1snc(Cl)c1Cl [E-II-033]
1.52[a] |  |  | Nc1cc(C(=O)NCCc2ccccc2)sn1 [I-854]
4.41[a] |  |  | COc1ccc(CNc2nsc(C(=O)NC3CCCC3c3ccccc3)c2Cl)cc1 (stereo not shown) [I-269]
−0.20[c] |  |  | CN1C2CCC1CC(NC(=O)c1snc(N)c1Cl)C2 (stereo not shown) [I-607]
2.12[a] |  |  | CC(=O)N(C(C)=O)c1nsc(C(=O)NCc2ccc(C#N)cc2)c1Cl [I-846]
 | 2.15^[a] |  | O=C(NCC1CCCCC1)c1snc(N=S2CCCC2)c1Cl [II-033]
2.66[a] |  |  | O=C(NCc1ccccc1F)c1snc(NC2CC2)c1Cl [I-057]
2.47[a] |  |  | COc1ccc(CNc2nsc(C(=O)NCc3noc(C)n3)c2Cl)cc1 [I-1270]
4.59[a] |  |  | COc1ccc(Nc2nsc(C(=O)N[C@@H](C)C3CCCCC3)c2Cl)cc1 [I-068]
4.39[a] |  |  | O=C(NCc1ccc(Cl)cc1)c1snc(N(C(=O)c2ccccc2)C(=O)c2ccccc2)c1Cl [I-582]
3.15[a] |  |  | Cc1cc(C)cc(CN(C(=O)c2snc(N)c2Cl)C2CC2)c1 [I-117]
 | 2.07^[a] |  | CCCS(CC)=Nc1nsc(C(=O)NCC2CCCCC2)c1F (stereo not shown) [II-093]
1.68[a] |  |  | N#Cc1ccc(CNC(=O)c2snc(NC(=O)C(F)F)c2Cl)cc1 [I-813]
2.73[a] |  |  | COc1ccc(CNc2nsc(C(=O)NC(C)c3ccno3)c2Cl)cc1 (stereo not shown) [I-1338]

Same assay, conditions: HPLC LC-UV, acidic range, 0.1% formic acid in water and acetonitrile as eluent

SMILES | chromatographic logP
O=Cc1c(N(Cc2ccccc2)Cc2ccccc2)nsc1C(=O)O [E-VIII-006, 3-(dibenzylamino)-4-formyl-1,2-thiazole-5-carboxylic acid] | 3.21
